The values that follow come from patent US20240131173A1, “PROTACS WITH TRANSCRIPTION FACTOR TARGETING MOIETIES” (Beth Israel Deaconess Medical Center, Inc., priority 2021, published 2024).

One series relates to HeLa cells. Nature of the series: Cell growth curve assay (cell number). It is filed as cell-based, human. To be noted: 10 ug/mL. The procedure:
For cell growth curve assay, HeLa cells (10, 000/well) in 12-well plate were transfected with individual TF-PROTAC, then the cells were trypsined and the cell number were counted at indicated time. For the clonal formation assay, HeLa cells were transfected with individual TF-PROTAC for 12 hours, followed by further plated into 6-well plate (1,000/well). Three weeks later, the cells were fixed in fixation buffer (acetic acid: methanol=1:7) and stained with 0.4% crystal violet in 20% ethanol. Then clonal number were quantified by Image J software. As various changes can be made in the above-described subject matter without departing from the scope and spirit of the present disclsoure, it is intended that all subject matter contained in the above description, or defined in the appended claims, be interpreted as descriptive and illustrative. Many modifications and variations of the present disclosure are possible in light of the above teachings. Accordingly, the present description is intended to embrace all such alternatives, modifications and variances which fall within the scope of the appended claims.

In series [1] the target is T1, p65 (Homo sapiens, UniProt Q04206). Nature of the series: In vivo ubiquitination assay of p65 (Ni-NTA pulldown). It is filed as cell-based. The note with it: HEK293T cells, Flag-p65 24 hours, then dNF-κB 12 hours. The procedure:
Denatured in vivo ubiquitination assays were performed as previously described 41. Briefly, HEK293T cells were firstly transfected with Flag-p65 or HA-E2F1 for 24 hours, followed by additional transfection of individual TF-PROTAC for another 12 hours. Before been harvested, HEK293T cells were treated with 30 μM of MG132 for 4 hours. After having been harvested in denatured buffer A (6 M guanidine-HCI, pH 8.0, 0.1 M Na2HPO4/NaH2PO4, and 10 mM imidazole) and sonication for 10 seconds, cell lysis was incubation with Ni-nitrilotriacetic acid (NTA) matrices under rotation for 3 hours at room temperature. The pulldown products were washed sequentially twice in buffer A, twice in buffer A/TI mixture (buffer A, buffer TI=1:3, v/v), and once in buffer TI (25 mM tris-HCl, pH 6.8, and 20 mM imidazole). The ubiquitinated proteins were finally separated by 7% SDS-PAGE and blotted with individual antibody.
Target sequence in this assay (Q04206 whole entry): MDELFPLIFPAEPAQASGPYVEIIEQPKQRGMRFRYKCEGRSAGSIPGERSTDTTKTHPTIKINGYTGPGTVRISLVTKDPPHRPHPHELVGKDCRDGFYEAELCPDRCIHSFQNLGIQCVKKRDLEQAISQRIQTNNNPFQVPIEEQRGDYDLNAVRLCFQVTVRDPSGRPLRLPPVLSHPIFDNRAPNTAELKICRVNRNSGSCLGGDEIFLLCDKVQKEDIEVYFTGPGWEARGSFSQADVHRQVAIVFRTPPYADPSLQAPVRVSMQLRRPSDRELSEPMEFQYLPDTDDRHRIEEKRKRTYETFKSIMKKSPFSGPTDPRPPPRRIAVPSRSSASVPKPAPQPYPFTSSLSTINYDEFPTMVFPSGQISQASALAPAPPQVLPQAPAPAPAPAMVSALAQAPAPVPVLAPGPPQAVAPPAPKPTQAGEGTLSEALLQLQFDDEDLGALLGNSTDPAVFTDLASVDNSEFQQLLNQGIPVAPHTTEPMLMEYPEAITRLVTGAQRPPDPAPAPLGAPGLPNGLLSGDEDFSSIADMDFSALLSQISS

The target in series [2] is T1, p65. Description: Global proteomic study by quantitative mass spectrometry in HeLa cells. Type of series: cell-based. Also noted: endogenous in cells; host or cells: HeLa. The note with it: out of more than 4,100 detected proteins. The procedure: HeLa cells were treated with either vehicle or dNF-κB #16 for 12 hours, washed twice with cold PBS, and then harvested in PBS to pellet down cells. Cell pellets were resuspended in lysis buffer ([…], 50 mM Tris-HCl, pH 8.0), reduced with dithiothreitol (5 mM final) for 30 min at room temperature, and alkylated with iodoacetamide (15 mM final) for 45 min in the dark at room temperature. Samples were diluted 4-fold with digestion buffer (25 mM Tris-HCl, pH 8.0, 1 mM CaCl2) and digested with trypsin at 1:100 ratio (trypsin/protein, w/w) overnight at room temperature. Peptides were desalted on home-made C18 stagetips. There were two biological samples at each condition.
Dried peptides were dissolved in 0.1% formic acid, 2% acetonitrile. Peptide concentration was measured with Pierce™ Quantitative Colorimetric Peptide Assay (Thermofisher). 0.5 ug of peptides were analyzed on a Q-Exactive HF-X coupled with an Easy nanoLC 1200 (Thermo Fisher Scientific, San Jose, CA). Peptides were loaded on to a nanoEase MZ HSS T3 Column (100 Å, 1.8 μm, 75 μm×150 mm, Waters). […]
Mass spectra were processed, and peptide identification was performed using the MaxQuant software version 1.6.10.43 (Max Planck Institute, Germany). […] Quantitation using iBAQ intensity (Intensity-Based Absolute Quantification) was performed with a p-value of 0.01 to report statistically significant abundance fold-changes.
Target sequence in this assay (Q04206 whole entry): as above
Target sequence in this assay (P19838 1-433 limits assumed, further chain): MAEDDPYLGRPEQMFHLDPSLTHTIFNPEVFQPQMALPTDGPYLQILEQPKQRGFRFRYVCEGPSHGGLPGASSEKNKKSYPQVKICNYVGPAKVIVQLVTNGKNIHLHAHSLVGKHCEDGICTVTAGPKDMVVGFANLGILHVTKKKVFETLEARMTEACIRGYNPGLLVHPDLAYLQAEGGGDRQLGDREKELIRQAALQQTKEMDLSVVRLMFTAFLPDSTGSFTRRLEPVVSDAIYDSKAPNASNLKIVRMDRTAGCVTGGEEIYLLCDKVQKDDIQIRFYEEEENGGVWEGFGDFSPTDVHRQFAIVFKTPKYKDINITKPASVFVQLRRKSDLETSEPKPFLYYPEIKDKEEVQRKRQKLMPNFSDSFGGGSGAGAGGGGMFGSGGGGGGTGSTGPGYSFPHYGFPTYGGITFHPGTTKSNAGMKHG

Take “dNF-κB #16 (TGGGGACTTTCCAGTTTCTGGAAAGTCCCCA; decoy; VHL ligand conjugate via PEG3 linker, further chemistry not given here)”: the “proliferation of HeLa cells (cell number)” value with HeLa cells is on record as “repressed the proliferation of HeLa cells”. For the same substance, in the series with p65 [1], the “ubiquitination of p65 in cells” value is “lead to the ubiquitination of p65 in cells”. Further, the “number of proteins with reduced expression level” value with p65 [2] is on record as 31.
